Target: T1, HCV1b NS5B polymerase delta 21 (Hepatitis C virus genotype 1b, UniProt P26663)
T1 construct: purified HCV1b NS5B polymerase delta 21
Experiment: RNA-Dependent RNA HCV NS5B (Polymerase) Assay and IC50 Determination
Format: biochemical
Procedure, shortened: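 Purified NS5B Δ21 (0.6 μg) with polyA:U16 template, 10 μM UTP plus α-32P UTP in Tris-HCl pH 7.5, 5 mM MgCl2, 0.5% Triton X-100, 60 min at 23°C with varied compound concentrations. Radiolabelled RNA captured on filters, quantified by phosphorimaging; IC50 from triplicate assays.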

T1 sequence (P26663 2420-2989): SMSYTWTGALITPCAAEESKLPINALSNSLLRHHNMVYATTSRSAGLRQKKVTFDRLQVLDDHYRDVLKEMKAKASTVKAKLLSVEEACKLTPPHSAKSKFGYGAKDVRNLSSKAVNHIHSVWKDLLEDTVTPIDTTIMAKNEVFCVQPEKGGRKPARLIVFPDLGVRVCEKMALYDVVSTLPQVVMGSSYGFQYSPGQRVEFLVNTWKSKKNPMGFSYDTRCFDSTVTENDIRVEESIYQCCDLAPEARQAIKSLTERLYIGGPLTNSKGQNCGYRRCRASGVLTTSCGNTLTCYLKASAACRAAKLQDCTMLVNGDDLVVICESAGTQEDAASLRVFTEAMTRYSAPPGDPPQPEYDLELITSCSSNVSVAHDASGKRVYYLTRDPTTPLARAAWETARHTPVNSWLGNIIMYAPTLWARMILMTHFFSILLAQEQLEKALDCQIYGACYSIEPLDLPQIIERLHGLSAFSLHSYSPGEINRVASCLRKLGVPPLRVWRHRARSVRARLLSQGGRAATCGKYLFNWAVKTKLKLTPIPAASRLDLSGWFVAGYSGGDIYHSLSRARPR

Compound | IC50 [µM]
CC1CCC(C2=C(c3cc(-c4ccccc4)sc3C(=O)O)CCN(C(=O)Cc3nc4ccccn4n3)C2)CC1 (stereo not shown) [Example 153, 3-[5-(4-Methyl-cyclohexyl)-1-(2-[1,2,4]triazolo[1,5-a]pyridin-2-yl-acetyl)-1,2,3,6-tetrahydro-pyridin-4-yl]-5-phenyl-thiophene-2-carboxylic acid] | 3 to 10
CCN1CCC(c2cc(C#CC(C)(C)C)sc2C(=O)O)=C(C2CCC(C)CC2)C1 (stereo not shown) [Example 014, 5-(3,3-Dimethyl-but-1-ynyl)-3-[1-ethyl-5-(4-methyl-cyclohexyl)-1,2,3,6-tetrahydro-pyridin-4-yl]-thiophene-2-carboxylic acid] | < 3
CC1CCC(C2=C(c3cc(-c4ccccc4)sc3C(=O)O)CCN(Cc3c(Cl)cncc3Cl)C2)CC1 (stereo not shown) [Example 146, 3-[1-(3,5-Dichloro-pyridin-4-ylmethyl)-5-(4-methyl-cyclohexyl)-1,2,3,6-tetrahydro-pyridin-4-yl]-5-phenyl-thiophene-2-carboxylic acid] | > 10
CCc1cc(CC)n2nc(CN3CCC(c4cc(-c5ccccc5)sc4C(=O)O)=C(C4CCC(C)CC4)C3)nc2n1 (stereo not shown) [Example 150, 3-[1-(5,7-Diethyl-[1,2,4]triazolo[1,5-a]pyrimidin-2-ylmethyl)-5-(4-methyl-cyclohexyl)-1,2,3,6-tetrahydro-pyridin-4-yl]-5-phenyl-thiophene-2-carboxylic acid] | < 3
CCOC(C#Cc1cc(C2=C(C3CCC(C)CC3)CN(CC)CC2)c(C(=O)O)s1)OCC (stereo not shown) [Example 033, 5-(3,3-Diethoxy-prop-1-ynyl)-3-[1-ethyl-5-(4-methyl-cyclohexyl)-1,2,3,6-tetrahydro-pyridin-4-yl]-thiophene-2-carboxylic acid] | 3 to 10
Cc1ccnc2cc(-c3ccc(-c4cc(C5=C(C6CCC(C)CC6)CN(C)CC5)c(C(=O)O)s4)cc3)nn12 (stereo not shown) [Example 162, 3-[1-Methyl-5-(4-methyl-cyclohexyl)-1,2,3,6-tetrahydro-pyridin-4-yl]-5-[4-(7-methyl-pyrazolo[1,5-a]pyrimidin-2-yl)-phenyl]-thiophene-2-carboxylic acid] | < 3
CC1CCC(C2=C(c3cc(-c4ccc(-c5nc6cccnc6[nH]5)cc4)sc3C(=O)O)CCN(C)C2)CC1 (stereo not shown) [Example 140, 5-[4-(3H-Imidazol-[4,5-b]pyridin-2-yl)-phenyl]-3-[1-methyl-5-(4-methyl-cyclohexyl)-1,2,3,6-tetrahydro-pyridin-4-yl]-thiophene-2-carboxylic acid] | 3 to 10
CC1CCC(C2=C(c3cc(-c4ccc(NC(=O)c5cscn5)cc4)sc3C(=O)OCOC(=O)OC(C)C)CCN(C)C2)CC1 (stereo not shown) [Example 106, 3-[1-Methyl-5-(4-methyl-cyclohexyl)-1,2,3,6-tetrahydro-pyridin-4-yl]-5-{4-[(thiazole-4-carbonyl)-amino]-phenyl}-thiophene-2-carboxylic acid isopropoxycarbonyloxymethyl ester] | > 10
CCOC(=O)N1CCC(c2cc(-c3ccccc3)sc2C(=O)O)=C(C2CCC(C)CC2)C1 (stereo not shown) [Example 038, 4-(2-Carboxy-5-phenyl-thiophen-3-yl)-5-(4-methyl-cyclohexyl)-3,6-dihydro-2H-pyridine-1-carboxylic acid ethyl ester] | > 10
CC1CCC(C2=C(c3cc(-c4ccccc4)sc3C(=O)O)CCN(C(=O)OC(C)(C)C)C2)CC1 (stereo not shown) [Example 037, 4-(2-Carboxy-5-phenyl-thiophen-3-yl)-5-(4-methyl-cyclohexyl)-3,6-dihydro-2H-pyridine-1-carboxylic acid tert-butyl ester] | > 10
CC1CCC(C2=C(c3cc(-c4ccc(NC(=O)c5cscn5)cc4F)sc3C(=O)O)CCN(C)C2)CC1 (stereo not shown) [Example 060, 5-{2-Fluoro-4-[(thiazole-4-carbonyl)-amino]-phenyl}-3-[1-methyl-5-(4-methyl-cyclohexyl)-1,2,3,6-tetrahydro-pyridin-4-yl]-thiophene-2-carboxylic acid] | < 3
CCN1CCC(c2cc(-c3ccc(NC(=O)c4ccccc4)cc3)sc2C(=O)O)=C(C2CCC(C)CC2)C1 (stereo not shown) [Example 020, 5-(4-Benzoylamino-phenyl)-3-[1-ethyl-5-(4-methyl-cyclohexyl)-1,2,3,6-tetrahydro-pyridin-4-yl]-thiophene-2-carboxylic acid] | 3 to 10
CC1CCC(C2=C(c3cc(C#CC4CCCC4)sc3C(=O)O)CN(C)CC2)CC1 (stereo not shown) [Example 176, 5-Cyclopentylethynyl-3-[1-methyl-4-(4-methyl-cyclohexyl)-1,2,5,6-tetrahydro-pyridin-3-yl]-thiophene-2-carboxylic acid] | < 3
CCOC(=O)c1sc(-c2ccc(NC(=O)c3cscn3)cc2)cc1C1=C(C2CCC(C)CC2)CN(C)CC1 (stereo not shown) [Example 100, 3-[1-Methyl-5-(4-methyl-cyclohexyl)-1,2,3,6-tetrahydro-pyridin-4-yl]-5-{4-[(thiazole-4-carbonyl)-amino]-phenyl}-thiophene-2-carboxylic acid ethyl ester] | > 10
CC1CC=C(C2=C(c3cc(-c4ccc(NC(=O)c5nccs5)cc4)sc3C(=O)O)CCN(C)C2)CC1 (stereo not shown) [Example 069, 3-[1-Methyl-5-(4-methyl-cyclohex-1-enyl)-1,2,3,6-tetrahydro-pyridin-4-yl]-5-{4-[(thiazole-2-carbonyl)-amino]-phenyl}-thiophene-2-carboxylic acid] | < 3
CCN1CCC(c2cc(-c3cccc(NC(=O)c4cccs4)c3)sc2C(=O)O)=C(C2CCC(C)CC2)C1 (stereo not shown) [Example 027, 3-[1-Ethyl-5-(4-methyl-cyclohexyl)-1,2,3,6-tetrahydro-pyridin-4-yl]-5-{3-[(thiophene-2-carbonyl)-amino]-phenyl}-thiophene-2-carboxylic acid] | > 10
CCN1CCC(c2cc(C#CC3CCCCC3)sc2C(=O)O)=C(C2CCC(C)CC2)C1 (stereo not shown) [Example 016, 5-Cyclohexylethynyl-3-[1-ethyl-5-(4-methyl-cyclohexyl)-1,2,3,6-tetrahydro-pyridin-4-yl]-thiophene-2-carboxylic acid] | > 10
CC1CCC(C2=C(c3cc(C#CC(C)(C)C)sc3C(=O)O)CN(C(=O)CO)CC2)CC1 (stereo not shown) [Example 170, 5-(3,3-Dimethyl-but-1-ynyl)-3-[1-(2-hydroxy-acetyl)-4-(4-methyl-cyclohexyl)-1,2,5,6-tetrahydro-pyridin-3-yl]-thiophene-2-carboxylic acid] | 3 to 10
CC1CCC(C2=C(c3cc(C#CC(C)(C)C)sc3C(=O)O)CCN(Cc3ccccn3)C2)CC1 (stereo not shown) [Example 127, 5-(3,3-Dimethyl-but-1-ynyl)-3-[5-(4-methyl-cyclohexyl)-1-pyridin-2-ylmethyl-1,2,3,6-tetrahydro-pyridin-4-yl]-thiophene-2-carboxylic acid] | < 3
Cc1cc(C)n2nc(CN3CCC(c4cc(C#CC(C)(C)C)sc4C(=O)O)=C(C4CCC(C)CC4)C3)nc2n1 (stereo not shown) [Example 128, 5-(3,3-Dimethyl-but-1-ynyl)-3-[1-(5,7-dimethyl-[1,2,4]triazolo[1,5-a]pyrimidin-2-ylmethyl)-5-(4-methyl-cyclohexyl)-1,2,3,6-tetrahydro-pyridin-4-yl]-thiophene-2-carboxylic acid] | < 3
CC1CCC(C2=C(c3cc(-c4ccccc4)sc3C(=O)O)CCN(C(=O)c3ccncc3)C2)CC1 (stereo not shown) [Example 094, 3-[5-(4-Methyl-cyclohexyl)-1-(pyridine-4-carbonyl)-1,2,3,6-tetrahydro-pyridin-4-yl]-5-phenyl-thiophene-2-carboxylic acid] | 3 to 10
CC1CCC(C2=C(c3cc(-c4ccc(NC(=O)c5cscn5)cc4)sc3C(=O)O)CCN(Cc3ccccn3)C2)CC1 (stereo not shown) [Example 131, 3-[5-(4-Methyl-cyclohexyl)-1-pyridin-2-ylmethyl-1,2,3,6-tetrahydro-pyridin-4-yl]-5-{4-[(thiazole-4-carbonyl)-amino]-phenyl}-thiophene-2-carboxylic acid] | < 3
CC1CCC(C2=C(c3cc(-c4ccccc4)sc3C(=O)O)CCN(C(=O)Cc3ccncc3)C2)CC1 (stereo not shown) [Example 093, 3-[5-(4-Methyl-cyclohexyl)-1-(2-pyridin-4-yl-acetyl)-1,2,3,6-tetrahydro-pyridin-4-yl]-5-phenyl-thiophene-2-carboxylic acid] | > 10
CC1CCC(C2=C(c3cc(-c4ccccc4)sc3C(=O)O)CCN(C(N)=O)C2)CC1 (stereo not shown) [Example 084, 3-[1-Carbamoyl-5-(4-methyl-cyclohexyl)-1,2,3,6-tetrahydro-pyridin-4-yl]-5-phenyl-thiophene-2-carboxylic acid] | < 3
CCN1CCC(c2cc(-c3ccc(NC(=O)C4CCCO4)cc3)sc2C(=O)O)=C(C2CCC(C)CC2)C1 (stereo not shown) [Example 058, 3-[1-Ethyl-5-(4-methyl-cyclohexyl)-1,2,3,6-tetrahydro-pyridin-4-yl]-5-{4-[(tetrahydro-furan-2-carbonyl)-amino]-phenyl}-thiophene-2-carboxylic acid] | < 3
CC1CCC(C2=C(c3cc(-c4ccc(-c5cc6ncccn6n5)cc4)sc3C(=O)O)CCN(Cc3ccccn3)C2)CC1 (stereo not shown) [Example 141, 3-[5-(4-Methyl-cyclohexyl)-1-pyridin-2-ylmethyl-1,2,3,6-tetrahydro-pyridin-4-yl]-5-(4-pyrazolo[1,5-a]pyrimidin-2-yl-phenyl)-thiophene-2-carboxylic acid] | 3 to 10
CCN1CCC(c2cc(C#CC(C)(C)N)sc2C(=O)O)=C(C2CCC(C)CC2)C1 (stereo not shown) [Example 021, 5-(3-Amino-3-methyl-but-1-ynyl)-3-[1-ethyl-5-(4-methyl-cyclohexyl)-1,2,3,6-tetrahydro-pyridin-4-yl]-thiophene-2-carboxylic acid] | < 3
CCN1CCC(c2cc(-c3ccc(NC(=O)c4cc(C)n(C)n4)cc3)sc2C(=O)O)=C(C2CCC(C)CC2)C1 (stereo not shown) [Example 051, 5-{4-[(1,5-Dimethyl-1H-pyrazole-3-carbonyl)-amino]-phenyl}-3-[1-ethyl-5-(4-methyl-cyclohexyl)-1,2,3,6-tetrahydro-pyridin-4-yl]-thiophene-2-carboxylic acid] | < 3

Reference: patent publication US8771665B2 (Cocrystal Discovery, Inc., priority 2010, dated 2014)
